Laboratory results as given in ChEMBL document CHEMBL1201862, “PubChem BioAssay data set” (2004).
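1) Cells in 96-well plates. 2) Compound, 48 h, 5 concentrations. 3) Linear interpolation between surrounding doses. 4) Unreached endpoint = highest concentration. The concentration for 50% growth inhibition is given as GI50.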 The source made the active and inactive calls. Rule as the data show it: active = GI50 up to about 1.1 µM and inactive = higher.

Key:
Assay in all cases: growth of human tumour cells (NCI), 48 h
MDA-MB-435 = tested on: MDA-MB-435
A498 = tested on: A498
NCI-H23 = tested on: NCI-H23
KM12 = tested on: KM12
OVCAR-4 = tested on: OVCAR-4
DU-145 = tested on: DU-145
LOX IMVI = tested on: LOX IMVI
SF-539 = tested on: SF-539
A549 = tested on: A549
PC-3 = tested on: PC-3
SNB-19 = tested on: SNB-19
SK-MEL-2 = tested on: SK-MEL-2
SN12C = tested on: SN12C
U-251 = tested on: U-251
SNB-75 = tested on: SNB-75
MDA-N = tested on: MDA-N
SK-OV-3 = tested on: SK-OV-3
HCT-15 = tested on: HCT-15
SR = tested on: SR
UO-31 = tested on: UO-31

| SMILES | GI50 (MDA-MB-435) | GI50 (A498) | GI50 (NCI-H23) | GI50 (KM12) | GI50 (OVCAR-4) | GI50 (DU-145) | GI50 (LOX IMVI) | GI50 (SF-539) | GI50 (A549) | GI50 (PC-3) | GI50 (SNB-19) | GI50 (SK-MEL-2) | GI50 (SN12C) | GI50 (U-251) | GI50 (SNB-75) | GI50 (MDA-N) | GI50 (SK-OV-3) | GI50 (HCT-15) [µM] | GI50 (SR) | GI50 (UO-31) |
| --- | --- | --- | --- | --- | --- | --- | --- | --- | --- | --- | --- | --- | --- | --- | --- | --- | --- | --- | --- | --- |
| COC(=O)C[C@@H]1C(C)(C)[C@@H]2O[C@@]34C[C@@H]2C(=O)[C@]1(C)[C@H]3CC[C@@]1(C)[C@H](c2ccoc2)OC(=O)C[C@]14O | > 100 µM (inactive) | > 100 µM (inactive) | > 100 µM (inactive) | > 100 µM (inactive) | > 100 µM (inactive) | > 100 µM (inactive) | > 100 µM (inactive) | > 100 µM (inactive) | > 100 µM (inactive) | > 100 µM (inactive) | 71.6 µM (inactive) | > 100 µM (inactive) | > 100 µM (inactive) | > 100 µM (inactive) | > 100 µM (inactive) | > 100 µM (inactive) | > 100 µM (inactive) | > 100 | > 100 µM (inactive) | – |
| C1=C[C@@H]2c3ccc4cnccc4c3NC[C@@H]2C1 | > 100 µM (inactive) | 33.6 µM (inactive) | > 100 µM (inactive) | 86.3 µM (inactive) | – | > 100 µM (inactive) | – | > 100 µM (inactive) | > 100 µM (inactive) | > 100 µM (inactive) | > 100 µM (inactive) | – | > 100 µM (inactive) | > 100 µM (inactive) | > 100 µM (inactive) | > 100 µM (inactive) | > 100 µM (inactive) | > 100 | > 100 µM (inactive) | 74.3 µM (inactive) |
| Cc1nc2c(O)cc3c4c([nH]c3c2nc1C)C(=O)CCC4 | 0.541 µM (active) | 19.5 µM (inactive) | 6.58 µM (inactive) | 3.69 µM (inactive) | 2.87 µM (inactive) | 1.99 µM (inactive) | 2.29 µM (inactive) | 2.85 µM (inactive) | 2.4 µM (inactive) | 3.61 µM (inactive) | 9.42 µM (inactive) | 2.59 µM (inactive) | 4.49 µM (inactive) | 2.16 µM (inactive) | – | 0.869 µM (active) | 3.76 µM (inactive) | 11.9 | 2.36 µM (inactive) | 14.3 µM (inactive) |
| CCOC(=O)c1cc(C2CCN(CC(C)CC)C2=S)c(C(=O)/C=C(/C)N)[nH]1 (configuration not stated) | > 50 µM (inactive) | > 50 µM (inactive) | > 50 µM (inactive) | > 50 µM (inactive) | – | > 50 µM (inactive) | > 50 µM (inactive) | > 50 µM (inactive) | – | > 50 µM (inactive) | > 50 µM (inactive) | > 50 µM (inactive) | > 50 µM (inactive) | > 50 µM (inactive) | > 50 µM (inactive) | > 50 µM (inactive) | > 50 µM (inactive) | > 50 | > 50 µM (inactive) | > 50 µM (inactive) |
| COc1ccc(/N=N/c2ccc3oc(=O)c(C(=O)Nc4ccc(Cl)cc4)cc3c2)cc1 | > 10 µM (inactive) | > 10 µM (inactive) | 6.38 µM (inactive) | 4.32 µM (inactive) | > 10 µM (inactive) | > 10 µM (inactive) | 9.95 µM (inactive) | 5.18 µM (inactive) | – | 2.56 µM (inactive) | – | > 10 µM (inactive) | > 10 µM (inactive) | 5.4 µM (inactive) | > 10 µM (inactive) | > 10 µM (inactive) | > 10 µM (inactive) | 0.67 | 2.38 µM (inactive) | 2.24 µM (inactive) |
| Cc1nn(C(=O)Cc2ccccc2)c2c1C(c1ccc(O)cc1)SC(=N)N2 (configuration not stated) | > 100 µM (inactive) | > 100 µM (inactive) | > 100 µM (inactive) | > 100 µM (inactive) | – | > 100 µM (inactive) | > 100 µM (inactive) | > 100 µM (inactive) | > 100 µM (inactive) | > 100 µM (inactive) | > 100 µM (inactive) | – | > 100 µM (inactive) | – | 44.6 µM (inactive) | > 100 µM (inactive) | > 100 µM (inactive) | > 100 | > 100 µM (inactive) | > 100 µM (inactive) |
| CCOc1ccc(-n2nnc3c(N)nc(N)nc32)cc1 | > 100 µM (inactive) | > 100 µM (inactive) | > 100 µM (inactive) | > 100 µM (inactive) | > 100 µM (inactive) | > 100 µM (inactive) | > 100 µM (inactive) | > 100 µM (inactive) | > 100 µM (inactive) | > 100 µM (inactive) | 29.1 µM (inactive) | > 100 µM (inactive) | > 100 µM (inactive) | > 100 µM (inactive) | > 100 µM (inactive) | > 100 µM (inactive) | > 100 µM (inactive) | > 100 | > 100 µM (inactive) | – |
| COc1cc(Cc2cnc(N)nc2N)cc(OC)c1OCCCNc1ccc([N+](=O)[O-])cc1 | 13.8 µM (inactive) | 14.9 µM (inactive) | 16 µM (inactive) | 14.4 µM (inactive) | 15.8 µM (inactive) | 15.8 µM (inactive) | – | 12.7 µM (inactive) | 13 µM (inactive) | 10.1 µM (inactive) | 12.8 µM (inactive) | 15.5 µM (inactive) | 16.3 µM (inactive) | 13.7 µM (inactive) | 16.2 µM (inactive) | 16.2 µM (inactive) | 31.5 µM (inactive) | 14.6 | 4.68 µM (inactive) | 12.4 µM (inactive) |
| COC(=O)c1cc(C#N)[nH]c1-c1ccsc1 | > 100 µM (inactive) | 95.5 µM (inactive) | > 100 µM (inactive) | > 100 µM (inactive) | > 100 µM (inactive) | > 100 µM (inactive) | > 100 µM (inactive) | – | > 100 µM (inactive) | > 100 µM (inactive) | – | > 100 µM (inactive) | > 100 µM (inactive) | > 100 µM (inactive) | > 100 µM (inactive) | > 100 µM (inactive) | > 100 µM (inactive) | 70.1 | 29.9 µM (inactive) | 46.3 µM (inactive) |
| OC(C/C(=N\N=C(/CC(O)(C(F)(F)F)C(F)(F)F)c1ccccc1)c1ccccc1)(C(F)(F)F)C(F)(F)F | > 10 µM (inactive) | > 10 µM (inactive) | > 10 µM (inactive) | > 10 µM (inactive) | > 10 µM (inactive) | > 10 µM (inactive) | > 10 µM (inactive) | > 10 µM (inactive) | > 10 µM (inactive) | > 10 µM (inactive) | > 10 µM (inactive) | > 10 µM (inactive) | > 10 µM (inactive) | > 10 µM (inactive) | > 10 µM (inactive) | > 10 µM (inactive) | > 10 µM (inactive) | > 10 | > 10 µM (inactive) | – |
| O=S(=O)(O)c1ccc2c(/N=N\c3ccc(F)cc3)c(O)c(S(=O)(=O)O)cc2c1 | > 100 µM (inactive) | > 100 µM (inactive) | > 100 µM (inactive) | > 100 µM (inactive) | > 100 µM (inactive) | > 100 µM (inactive) | > 100 µM (inactive) | – | > 100 µM (inactive) | > 100 µM (inactive) | > 100 µM (inactive) | > 100 µM (inactive) | > 100 µM (inactive) | > 100 µM (inactive) | > 100 µM (inactive) | > 100 µM (inactive) | > 100 µM (inactive) | > 100 | > 100 µM (inactive) | > 100 µM (inactive) |
